Test results: patent US10357036B2, “Compounds for controlling arthropods” (priority 2015, dated 2019)
Where two headings read alike, the source gives them in different places.

Experiments:
Ctenocephalides felis [1] = experiment: Ctenocephalides felis in vitro contact test with adult cat fleas; assay type: in vivo; conditions: application rate 5 μg/cm^2 (=500 g/ha); after 48 h; dead or moribund fleas
Method in brief: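 After 48 h at room temperature and ambient humidity, adult cat fleas (5–10 per tube) were scored, with motionless or uncoordinated fleas counted dead or moribund. Tubes had been coated with acetone solutions of compound, the 900 ppm solution giving 5 μg/cm². Efficacy: 100% means all fleas dead or moribund, 0% none harmed.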

Rhipicephalus sanguineus = Rhipicephalus sanguineus in vitro contact test with adult brown dog ticks; assay type: in vivo; conditions: after 48 h
Method in brief: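 Efficacy, as % of ticks dead or moribund, was judged 48 h after placing 5-10 adult brown dog ticks in acetone-coated tubes (5 μg/cm^2 from 900 ppm) kept dark at room temperature. Ticks unable to climb away from a 45-50° C hotplate within 5 min counted as affected.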

[2] = test system: cattle ticks (Boophilus microplus) Parkhurst strain, SP-resistant; experiment: Boophilus microplus dip test; assay type: in vivo; conditions: 100 ppm; assessed after 7 days
Description: • Test animals: cattle ticks (Boophilus microplus) Parkhurst strain, SP-resistant • Solvent: dimethyl sulfoxide
10 mg of active ingredient are dissolved in 0.5 ml of dimethyl sulfoxide. To produce a suitable formulation, the active ingredient solution is diluted with water to the concentration desired in each case.
This active ingredient formulation is pipetted into tubes. 8-10 engorged adult female cattle ticks (Boophilus microplus) are transferred into a further tube with holes. The tube is immersed into the active ingredient formulation, and all the ticks are completely wetted. After the liquid has run out, the ticks are transferred on filter discs into plastic dishes and stored in a climate-controlled room.
Efficacy is assessed after 7 days by laying of fertile eggs. Eggs which are not visibly fertile are stored in a climate-controlled cabinet until the larvae hatch after about 42 days. An efficacy of 100% means that none of the ticks has laid any fertile eggs; 0% means that all the eggs are fertile.

Boophilus microplus = Boophilus microplus injection test; assay type: in vivo; conditions: 20 μg/animal; assessed after 7 days
Description: (§1) • Solvent: dimethyl sulfoxide
1 μl of the active ingredient solution is injected into the abdomen of 5 engorged adult female cattle ticks (Boophilus microplus). The animals are transferred into dishes and kept in a climate-controlled room.

Ctenocephalides felis [3] = experiment: Ctenocephalides felis oral test; assay type: in vivo; conditions: 100 ppm in citrated cattle blood; after 2 days
Musca domestica = Musca domestica test; assay type: in vivo; conditions: 100 ppm; adult houseflies; after 2 days
Description: as §1
To produce a suitable active ingredient formulation, 10 mg of active ingredient are mixed with 0.5 ml of dimethyl sulfoxide, and the concentrate is diluted with water to the desired concentration.
Vessels containing a sponge treated with sugar solution and the active ingredient formulation of the desired concentration are populated with 10 adult houseflies (Musca domestica).

Meloidogyne incognita = Meloidogyne incognita test; assay type: in vivo; conditions: 20 ppm; after 14 days
Description: • Solvent: 125.0 parts by weight of acetone
To produce a suitable active compound preparation, 1 part by weight of active compound is mixed with the stated amount of solvent and the concentrate is diluted to the desired concentration with water.
Vessels are filled with sand, active compound solution, an egg/larvae suspension of the southern root-knot nematode (Meloidogyne incognita) and lettuce seeds. The lettuce seeds germinate and the plants develop. The galls develop on the roots.
After 14 days, the nematicidal efficacy in % is determined by the formation of galls. 100% means that no galls were found; 0% means that the number of galls on the treated plants corresponds to the untreated control.

Myzus persicae = Myzus persicae spray test (Chinese cabbage leaf discs); assay type: in vivo; conditions: 100 g/ha; after 6 days
Description: (§2) After 6 days, the efficacy in % is determined.

Spodoptera frugiperda = Spodoptera frugiperda spray test; assay type: in vivo; conditions: 100 g/ha, after 7 days
Tetranychus urticae [4] = experiment: Tetranychus urticae spray test, OP-resistant (bean leaf discs); assay type: in vivo; conditions: 100 g/ha; after 6 days
Description: as §2

Phaedon cochleariae = Phaedon cochleariae spray test; conditions: for efficacy: 100 g/ha, after 7 days
Tetranychus urticae [5] = experiment: Tetranychus urticae spray test, OP-resistant (bean plants); assay type: in vivo; conditions: 4 ppm; after 7 days
Description: To produce further test concentrations, the latter is diluted with emulsifier-containing water. When addition of ammonium salts and/or penetrants is required, these are each added at a concentration of 1000 ppm to the preparation solution.
Bean plants (Phaseolus vulgaris), which are heavily infested by all stages of the greenhouse red spider mite (Tetranychus urticae), are treated by being sprayed with the active compound preparation at the desired concentration.

[6] = test system: Amaranthus retroflexus (AMARE); experiment: Herbicidal activity, pre-emergence; assay type: in vivo; conditions: 1280 g/ha, 3 weeks
From the text: Seeds of monocotyledonous and dicotyledonous weed plants and crop plants were placed in wood-fibre pots in sandy loam and covered with soil. The compounds according to the invention, formulated as emulsion concentrates (EC), were then applied to the surface of the covering soil as an emulsion at a water application rate equating to 600 to 800 Uha with addition of 0.2% wetting agent.
After the treatment, the pots were placed in a greenhouse and kept under good growth conditions for the test plants. The damage to the test plants was scored visually after a test period of 3 weeks by comparison with untreated controls (herbicidal activity in percent (%): 100% activity=the plants have died, 0% activity=like control plants). Here, for example, compounds No. Ia-17, Ia-37, Ia-28 and Ia-56 at an application rate of 1280 g/ha each show 100% efficacy against Amaranthus retroflexus (AMARE) and with the exception of Ia-56, even against Viola tricolor (VIOTR). Furthermore, compounds no. Ia-17, Ia-37 and Ia-28 at the same application rate show an 80% or better efficacy against Matricaria inodorae (MATIN) and Ia-17 and Ia-37 even against Stellaria media (STEME).

[7] = test system: Anopheles gambiae strain RSPH (homozygot kdr); experiment: whole plant or invertebrate; assay type: in vivo; conditions: read-out: efficacy (mortality)
Description: (§3) • Solvent: acetone+2000 ppm rapeseed oil methyl ester (RME)
(§4) To produce a suitable active compound formulation, the active compound is dissolved in the solvent (2 mg/ml). The active compound formulation is pipetted onto a glazed tile and, after it has dried off, adult mosquitoes of the species Anopheles gambiae strain RSPH (homozygot kdr) are placed onto the treated tile. The exposure time is 30 minutes.

[8] = test system: Aedes aegypti strain MONHEIM; experiment: whole plant or invertebrate; assay type: in vivo; conditions: read-out: efficacy (mortality)
Description: as §3
as §4, with “Aedes aegypti” for “Anopheles gambiae”, “MONHEIM” for “RSPH (homozygot kdr)”

[9] = application rate 5 μg/cm^2 (=500 g/ha), dead or moribund ticks

SMILES | efficacy (Ctenocephalides felis [1]) [%] | efficacy (Rhipicephalus sanguineus; [9]) [%] | efficacy (laying of fertile eggs) [2] [%] | efficacy (laying of fertile eggs) (Boophilus microplus) [%] | efficacy (rate of extermination) (Ctenocephalides felis [3]) [%] | efficacy (rate of extermination) (Musca domestica) [%] | nematicidal efficacy (formation of galls) (Meloidogyne incognita) [%] | efficacy (Spodoptera frugiperda) [%] | efficacy (Tetranychus urticae [4]) [%] | efficacy (Phaedon cochleariae) [%] | efficacy (Tetranychus urticae [5]) [%] | other results
CC(=O)NCc1cc(-c2cnn(-c3c(Cl)cc(C(F)(C(F)(F)F)C(F)(F)F)cc3Cl)c2)ccc1F [Ia-15] | 100 | 100 | 90 | 100 | 100 | 100 | 90 | 100 | 100 | 100 |  | efficacy (Myzus persicae): 90%
CC(=O)NCc1cc(-c2cnn(-c3c(Cl)cc(C(F)(C(F)(F)F)C(F)(F)F)cc3C(F)(F)F)c2)ccc1Cl [Ia-55] | 70 | 100 |  | 100 | 100 | 100 |  | 100 |  | 100 | 99 | 
O=C(NCc1cc(-c2cnn(-c3c(Cl)cc(C(F)(C(F)(F)F)C(F)(F)F)cc3OC(F)(F)F)c2)ccc1Cl)C1CC1 [Ia-56] | 100 |  |  | 100 | 100 | 100 |  | 100 |  | 100 |  | efficacy (Rhipicephalus sanguineus; application rate 1 μg/cm^2 (=100 g/ha)): 100%; herbicidal efficacy [6]: 100%
CC(=O)NCc1cc(-c2cnn(-c3c(Cl)cc(C(F)(C(F)(F)F)C(F)(F)F)cc3OC(F)(F)F)c2)ccc1Cl [Ia-57] |  | 80 |  | 100 | 100 | 100 |  | 100 |  | 100 | 99 | 
CCC(=O)NCc1cccc(-c2cnn(-c3c(Cl)cc(C(F)(C(F)(F)F)C(F)(F)F)cc3Cl)c2)c1 [Ia-08] | 100 | 80 |  | 100 | 100 | 80 | 100 | 100 | 90 | 100 |  | 
CC(=O)NCc1cc(-c2cnn(-c3c(Cl)cc(C(F)(C(F)(F)F)C(F)(F)F)cc3C#N)c2)ccc1F [Ia-105] |  |  |  |  |  |  | 90 | 100 | 100 | 100 |  | efficacy (Myzus persicae): 90%
CC(=O)NCc1cc(-c2cnn(-c3c(Cl)cc(C(F)(C(F)(F)F)C(F)(F)F)cc3C(F)F)c2)ccc1F [Ia-34] |  |  |  |  |  |  | 100 | 100 | 100 | 100 |  | efficacy (Myzus persicae): 90%
CC(=O)NCc1cc(-c2cnn(-c3c(Cl)cc(C(F)(C(F)(F)F)C(F)(F)F)cc3OC(F)F)c2)ccc1Cl [Ia-53] | 90 | 100 | 100 | 100 | 100 | 100 |  | 100 |  | 100 | 99 | 
O=C(NCc1cc(-c2cn(-c3c(Cl)cc(C(F)(C(F)(F)F)C(F)(F)F)cc3Cl)cn2)ccc1F)C1CC1 [I-T2-04] | 100 |  | 100 | 100 | 100 |  |  | 83 |  | 100 | 100 | 
CCC(=O)NCc1cc(-c2cnn(-c3c(Cl)cc(C(F)(C(F)(F)F)C(F)(F)F)cc3OC(F)F)c2)ccc1Cl [Ia-51] | 100 | 100 | 100 | 100 | 100 | 100 |  | 100 |  | 100 | 99 | 
CC(=O)N(Cc1cc(-c2cnn(-c3c(Cl)cc(C(F)(C(F)(F)F)C(F)(F)F)cc3Cl)c2)ccc1Cl)C(C)=O [Ia-108, N-Acetyl-N-(2-chloro-5-{1-[2,6-dichloro-4-(1,1,1,2,3,3,3-heptafluoropropan-2-yl)phenyl]-1H-pyrazol-4-yl}benzyl)acetamide] | 100 | 80 |  | 100 | 100 | 100 |  |  | 90 |  |  | pest or weed control at 100 g/ha (Spodoptera frugiperda; Spodoptera frugiperda, 168 h, read-out: efficacy): 100%; mortality at 100 mg/m2 [7]: 90 to 100%; mortality at 20 mg/m2 [8]: 90 to 100%; mortality at 100 mg/m2 [8]: 90 to 100%; pest or weed control at 100 g/ha (Phaedon cochleariae; Phaedon cochleariae, 168 h, read-out: efficacy): 100%; chromatographic logP (reversed-phase C18 HPLC column, logP, HPLC, C18, acetonitrile/water with formic acid (note a)): 5.14; chromatographic logP (reversed-phase C18 HPLC column, logP^a, HPLC-MS method a)): 5.14
